Measurements reported in patent US20050281745A1, “Stable isotope based dynamic metabolic profiling of living organisms for characterization of metabolic diseases, drug testing and drug development” (priority 2002, published 2005).

Test system: pentose cycle, glucose activation and fatty acid synthesis pathways
Experiment: stable isotope ([1,2-13C2]glucose) based dynamic metabolic profiling
Type: cell-based
Conditions: for cell proliferation rates / nucleic acid ribose synthesis through the non-oxidative steps of the pentose cycle: metabolic profile induced by cell transforming agents
From the text: The present invention comprises, for example, the use of the stable [1,2-^13C2]glucose tracer for metabolic pathway analyses in cultures of mammalian cells, bacteria, virus hosting cells, phage hosting bacteria, tissue slices, perfused organs, living animals or humans. The invention provides a dynamic and comprehensive metabolic profiling technique by using specifically labeled glucose substrate isotopes which not only turn into intermediary metabolites but also produce mass isotopomers of these metabolites which can be separated, measured and quantitated using liquid and gas chromatography separation and mass spectrometry (GC/MS), other mass spectrometric analysis or nuclear magnetic resonance (NMR) instruments.
After treatments, while incubating with the isotope labeled glucose substrate, the profiling study may begin with the separation of cell pellets, cell culture media, blood plasma/serum or body fluids. The cell culture media may then be used for lactate and glutamate analyses. Lactate is an abundant cell media component of the 3 carbon metabolite pool of the cell. It is used to determine the relative activity of pentose cycle glucose oxidation and recycling into glycolysis, as the percent of substrate flux through glycolysis, also known as the Embden-Meyerhoff-Parnas pathway. Glutamate label accumulation represents tricarboxylic acid (TCA) cycle carbon substrate flow. Nucleic acid ribose and deoxyribose are used to determine cell viability (ribose) and cell proliferation (deoxyribose).
Cell cycle progression and the frequency of cell divisions are determined by the accumulation of ^13C label into deoxyribose, while cell viability, apoptosis and necrosis are determined by the differential incorporation of ^13C into ribose and deoxyribose. The major advantage of our label system introduced herein is that we can differentiate between glucose oxidation and nonoxidative ribose/deoxyribose synthesis during nucleic acid production in disease and health as well as during drug testing. Glycogen glucose represents glycogen synthesis, which can originate from activated glucose (direct glycogen synthesis) or indirectly from pentoses after glucose oxidation in the pentose cycle. Non-essential fatty acids of the saturated and desaturated kinds indicate the rate of de novo fatty acid synthesis from glucose and the contribution of fatty acid synthase, chain elongase and desaturase to cell differentiation, hormone synthesis and drug effects.
The details of how the invention can be carried out can be better understood by reference to the figures. […] Glucose activation via hexokinase/glucokinase and the formation of fructose-1,6-bis phosphate maintain the ^13C labeled carbons in the 1st and 2nd positions. ^13C-labeled carbon positions derived from [1,2-^13C2]glucose are shown by the “13” superscript, while ^12C native-labeled carbon positions are shown by the “12” superscript. Participating enzymes are italicized in all of the figures. Thus, a single version of the invention can be carried out by creating two separate cell culture systems. The first system is a control system which includes the ^13C labeled glucose which may be [1,2-^13C2] glucose. […]

Row | Compound | glucose activation and oxidative and non-oxidative ribose synthesis from glucose (metabolic profile of anticancer compounds, associated with effective tumor growth control) | cell proliferation rates | nucleic acid ribose synthesis through the non-oxidative steps of the pentose cycle
1 | Cc1ccc(NC(=O)c2ccc(CN3CCN(C)CC3)cc2)cc1Nc1nccc(-c2cccnc2)n1 [Gleevec] | inhibited | – | –
2 | CCOP(=S)(NC(C)C)Oc1ccccc1C(=O)OC(C)C (centres unmarked) [isofenphos] | – | increased | intense
3 | transforming growth factor beta [TGF-beta] | – | increased | intense
